According to US7820196B2, “Physiologically active agents containing vicinal dithioglycols and use thereof in various branches of economy” (priority 1999, dated 2010):
Several values for one entry are separate records, joined by “and”; a condition that tells them apart may be missing. Equal values may be shown once.

Tested on: participants (males and females) taking 1 l dark beer every evening
Test: Example 7: hangover and biochemical indices in participants taking dark beer with Unithiol or placebo
Format: in vivo, human
Conditions: for MDA (urine) / ALT (blood) / AST (blood) / SH-gr. (blood) / Triglycerides (blood) / Urate (blood) / Vit. A (blood) / Vit. E (blood): one value per participant
Source text: The tests were held upon the offer's proposal. The Moscow scientific and practical Center for the drug prophylactic of the Moscow health Administration was taken as the base for it.
The experiment was schemed as follows. The participants were taken from males and females of different age groups and different alcohol intake habits.
The control group remained as an intact one.
The experimental group—1—took in 1 l. of a dark beer of the “Klinskoie” type every evening from the X^th day till the X+13th day. That group took in the placebo every morning from the X+1th day till X+7th day, and every morning it took in from the X+8th day till X+14th day the solution of 250 mg of Unithiol in 100 g of drinking water.
The experimental group—2—took in 1 l. of a dark beer of the “Klinskoie” type every evening from the X^th day till the X+13th day. That group took in the solution of 250 mg of Unithiol in 100 g of drinking water every morning from the X+1th day till X+7th day, and every morning it took in the placebo from the X+8th day till X+14th day.
The measurements of the biochemical indices were taken in the mornings in every group, and in the control groups—after 30 minutes of placebo or Unithiol intake.
The following indices of the level of the per oxidation of lipids and the condition of the liver and the brain tissues were measured: • MDA—malondialdehyde • Triglycerides • Endogenous antioxidants: • Vit. A—vitamin A • Vit. E—vitamin E • Urate—serum urate • SH-gr.—SH-groups • Aminotransferase: • ALT—lanine aminotransferase • AST—aspartate aminotransferase

[1] = day X+7, Experimental group 2: beer every evening, 250 mg Unithiol mornings X+1 to X+7
[2] = day X+14, Experimental group 1: beer every evening, 250 mg Unithiol mornings X+8 to X+14

Compound: O=S(=O)([O-])CC(S)CS.[Na+] (stereo not shown) [Unithiol, Sodium 2,3-Dimercaptopropane sulfonate]
- time to full hangover alleviating after intake (250 mg Unithiol in 100 g drinking water in the morning after 1 l dark beer in the evening): 5 to 10 min
- toxic activity of ethanol and products of its incomplete oxidation (carbonyl compounds) to liver and brain tissue (Unithiol intake during alcohol intake): reduce almost to the whole extent
- MDA (urine) (day X+2, Experimental group 2: 1 l dark beer every evening, 250 mg Unithiol mornings X+1 to X+7): 0.62 nM/ml and 0.45 nM/ml (2×) and 0.47 nM/ml and 0.43 nM/ml and 0.99 nM/ml and 0.67 nM/ml
- MDA (urine) (day X+4, Experimental group 2: beer every evening, 250 mg Unithiol mornings X+1 to X+7): 0.60 nM/ml and 0.58 nM/ml (2×) and 0.42 nM/ml and 0.51 nM/ml and 0.88 nM/ml and 0.53 nM/ml
- ALT (blood) [1]: 61 nmol (sec. 1) and 50 nmol (sec. 1) (2×) and 37 nmol (sec. 1) and 46 nmol (sec. 1) and 190 nmol (sec. 1) and 39 nmol (sec. 1)
- AST (blood) [1]: 48 nmol (sec. 1) and 46 nmol (sec. 1) and 31 nmol (sec. 1) and 41 nmol (sec. 1) and 37 nmol (sec. 1) and 172 nmol (sec. 1) and 30 nmol (sec. 1)
- MDA (urine) [1]: 0.55 nM/ml and 0.43 nM/ml and 0.49 nM/ml and 0.42 nM/ml and 0.38 nM/ml and 0.89 nM/ml and 0.56 nM/ml
- SH-gr. (blood) [1]: 378 MKM and 389 MKM (2×) and 383 MKM and 380 MKM and 197 MKM and 354 MKM
- Triglycerides (blood) [1]: 0.80 mmoi/l and 0.59 mmoi/l and 0.44 mmoi/l and 0.43 mmoi/l and 0.41 mmoi/l and 1.73 mmoi/l and 0.42 mmoi/l
- Urate (blood) [1]: 268 MKM and 267 MKM and 311 MKM and 295 MKM and 280 MKM and 208 MKM and 279 MKM
- Vit. A (blood) [1]: 1.9 µg/mL and 2.2 µg/mL and 2.8 µg/mL and 2.3 µg/mL and 2.7 µg/mL and 0.6 µg/mL and 1.6 µg/mL
- Vit. E (blood) [1]: 2.6 µg/mL and 3.3 µg/mL and 3.1 µg/mL and 3.8 µg/mL and 3.2 µg/mL and 1.0 µg/mL and 2.4 µg/mL
- MDA (urine) (day X+9, Experimental group 1: 1 l dark beer every evening, placebo mornings X+1 to X+7, 250 mg Unithiol mornings X+8 to X+14): 0.7 nM/ml and 1.0 nM/ml and 0.90 nM/ml and 0.82 nM/ml
- MDA (urine) (day X+11, Experimental group 1: beer every evening, 250 mg Unithiol mornings X+8 to X+14): 0.63 nM/ml and 0.80 nM/ml and 0.72 nM/ml and 0.54 nM/ml
- ALT (blood) [2]: 52 nmol (sec. 1) and 58 nmol (sec. 1) and 45 nmol (sec. 1) and 42 nmol (sec. 1)
- AST (blood) [2]: 41 nmol (sec. 1) and 50 nmol (sec. 1) and 40 nmol (sec. 1) and 35 nmol (sec. 1)
- MDA (urine) [2]: 0.69 nM/ml and 0.82 nM/ml and 0.64 nM/ml and 0.53 nM/ml
- SH-gr. (blood) [2]: 384 MKM and 375 MKM and 389 MKM and 392 MKM
- Triglycerides (blood) [2]: 0.65 mmoi/l and 0.59 mmoi/l and 0.71 mmoi/l and 0.64 mmoi/l
- Urate (blood) [2]: 265 MKM and 253 MKM and 285 MKM and 279 MKM
- Vit. A (blood) [2]: 1.4 mcg/ml (2×) and 1.2 mcg/ml and 2.1 mcg/ml
- Vit. E (blood) [2]: 2.8 µg/mL and 2.1 µg/mL and 2.2 µg/mL and 1.7 µg/mL
